The NIST ThermoML archive (doi:10.1016/j.fluid.2006.05.032)

Conditions: Liquid, Vibrating tube method

Cc1ccccc1 [toluene]
mass density [kg/m3]
Conditions | 293.15 K | 303.15 K | 313.15 K | 323.15 K | 333.15 K | 343.15 K | 353.15 K
100 kPa | 867.1 | 857.5 | 847.8 | 838.4 | 828.8 | 819.4 | 809.7
5000 kPa | 870.6 | 861.4 | 852 | 842.7 | 833.5 | 824.5 | 815.1
10000 kPa | 874.2 | 865.1 | 856.1 | 847 | 838.2 | 829.3 | 820.3
15000 kPa | 877.6 | 869 | 859.9 | 851.1 | 842.6 | 833.9 | 825.3
20000 kPa | 881.1 | 872.4 | 863.5 | 855 | 846.6 | 838.1 | 829.9
25000 kPa | 884.2 | 875.8 | 867.1 | 858.9 | 850.5 | 842.3 | 834
30000 kPa | 887.3 | 879 | 870.5 | 862.5 | 854.3 | 846.2 | 838.2
35000 kPa | 890.3 | 882.1 | 873.8 | 866 | 857.9 | 850.1 | 842.2
40000 kPa | 893.3 | 885.2 | 877 | 869.4 | 861.4 | 853.7 | 846.1
45000 kPa | 896.1 | 888.2 | 880.2 | 872.5 | 864.8 | 857.4 | 849.8
50000 kPa | 898.9 | 891.1 | 883.3 | 875.7 | 868.1 | 860.8 | 853.3
55000 kPa | 901.6 | 894 | 886.2 | 878.7 | 871.4 | 864.2 | 856.7
60000 kPa | 904.2 | 896.7 | 889 | 881.7 | 874.5 | 867.4 | 860.1
65000 kPa | 906.7 | 899.2 | 891.8 | 884.6 | 877.5 | 870.3 | 863.5

CCCO [propan-1-ol]
mass density [kg/m3]
Conditions | 293.15 K | 303.15 K | 313.15 K | 323.15 K | 333.15 K | 343.15 K | 353.15 K
100 kPa | 803.5 | 795.2 | 787.6 | 779.3 | 770.5 | 761 | 752.2
5000 kPa | 807.3 | 799.2 | 791.9 | 783.7 | 775.4 | 766 | 757.6
10000 kPa | 810.9 | 802.9 | 795.9 | 788 | 780 | 770.7 | 762.7
15000 kPa | 814.3 | 806.7 | 799.7 | 792 | 784.3 | 775.3 | 767.6
20000 kPa | 817.7 | 810.1 | 803.3 | 795.8 | 788.4 | 779.6 | 772.1
25000 kPa | 821 | 813.6 | 806.8 | 799.7 | 792 | 783.7 | 776.3
30000 kPa | 824 | 816.7 | 810.2 | 803.2 | 795.7 | 787.6 | 780.4
35000 kPa | 827 | 819.8 | 813.5 | 806.6 | 799.2 | 791.2 | 784.1
40000 kPa | 829.9 | 822.9 | 816.6 | 809.9 | 802.6 | 794.7 | 787.7
45000 kPa | 832.7 | 825.8 | 819.7 | 813 | 805.9 | 798.3 | 791.8
50000 kPa | 835.4 | 828.8 | 822.7 | 816.1 | 809.1 | 801.6 | 795.1
55000 kPa | 838.1 | 831.6 | 825.5 | 819 | 812.3 | 804.6 | 798.5
60000 kPa | 840.7 | 834.2 | 828.3 | 821.8 | 815.2 | 807.7 | 801.7
65000 kPa | 843.2 | 837 | 831 | 824.6 | 818.1 | 810.6 | 805
